From ChEMBL document CHEMBL4406903, “Synthesis of benzopyran derivatives as PPARα and/or PPARγ activators” (Bioorg Med Chem, 2019)
The source made the active and inactive calls. The rule behind the calls is not given here.

Experiments:
Format in all cases: cell-based
[1] = molecular target: T1, Peroxisome proliferator-activated receptor gamma (Homo sapiens) (UniProt P37231); experiment: Transactivation of GAL4-fused human PPARgamma expressed in COS7 cells assessed as efficacy at 10 uM incubated for 24 hrs by luciferase reporter gene assay relative to rosiglitazone
T1 sequence (whole entry): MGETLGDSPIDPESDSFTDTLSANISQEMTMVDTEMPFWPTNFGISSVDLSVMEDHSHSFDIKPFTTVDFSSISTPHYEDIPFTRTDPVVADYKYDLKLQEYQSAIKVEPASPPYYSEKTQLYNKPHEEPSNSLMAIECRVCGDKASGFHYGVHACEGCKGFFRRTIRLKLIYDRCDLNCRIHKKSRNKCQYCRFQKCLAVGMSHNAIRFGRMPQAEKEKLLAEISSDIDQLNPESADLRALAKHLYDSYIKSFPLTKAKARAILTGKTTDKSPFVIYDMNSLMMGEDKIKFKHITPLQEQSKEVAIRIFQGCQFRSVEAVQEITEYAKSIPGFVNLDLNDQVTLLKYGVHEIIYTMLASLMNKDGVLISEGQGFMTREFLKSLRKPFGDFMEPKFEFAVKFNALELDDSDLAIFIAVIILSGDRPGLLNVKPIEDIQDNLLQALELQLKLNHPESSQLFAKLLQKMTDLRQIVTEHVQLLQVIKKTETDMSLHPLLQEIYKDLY

[2] = molecular target: T2, Peroxisome proliferator-activated receptor alpha (Homo sapiens) (UniProt Q07869); experiment: Agonist activity at GAL4-fused human PPARalpha expressed in COS7 cells incubated for 24 hrs by luciferase reporter gene assay
T2 sequence (whole entry): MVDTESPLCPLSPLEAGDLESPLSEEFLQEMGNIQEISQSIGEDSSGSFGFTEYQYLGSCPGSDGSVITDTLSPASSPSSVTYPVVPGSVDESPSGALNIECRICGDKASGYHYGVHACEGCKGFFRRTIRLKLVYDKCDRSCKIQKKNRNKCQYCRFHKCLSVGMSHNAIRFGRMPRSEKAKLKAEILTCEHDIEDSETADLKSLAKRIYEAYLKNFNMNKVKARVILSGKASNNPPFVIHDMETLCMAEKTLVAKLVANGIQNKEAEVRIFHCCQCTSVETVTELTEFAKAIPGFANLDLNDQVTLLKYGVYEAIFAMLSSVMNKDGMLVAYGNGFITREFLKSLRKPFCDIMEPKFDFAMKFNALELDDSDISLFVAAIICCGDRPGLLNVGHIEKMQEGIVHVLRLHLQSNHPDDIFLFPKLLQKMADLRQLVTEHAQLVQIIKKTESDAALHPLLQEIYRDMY

[3] = molecular target: T2, Peroxisome proliferator-activated receptor alpha (Homo sapiens); experiment: Transactivation of GAL4-fused human PPARalpha expressed in COS7 cells assessed as efficacy at 10 uM incubated for 24 hrs by luciferase reporter gene assay relative to WY-14643
[4] = molecular target: T1, Peroxisome proliferator-activated receptor gamma (Homo sapiens); experiment: Agonist activity at GAL4-fused human PPARgamma expressed in COS7 cells incubated for 24 hrs by luciferase reporter gene assay

| SMILES | Efficacy [1] | Activity [2] | Efficacy [3] | Activity [4] |
| --- | --- | --- | --- | --- |
| Cc1cccc(Nc2cc(Cl)nc(SCC(=O)O)n2)c1C | inactive |  |  |  |
| CC(C)(O)CCC1(C)CC(=O)c2cc(O)ccc2O1 (centres undefined) | inactive | Active | 23% |  |
| CC1(CCC(=O)O)CCc2cc(O)ccc2O1 (centres undefined) | inactive | Active | 21% |  |
| CCCCCC1(C)CC(=O)c2c(ccc(O)c2Cl)O1 (centres undefined) | 30% |  | inactive | Active |
| C=C(C)CCC1(C)CCc2cc(O)ccc2O1 (centres undefined) | inactive | Active | 35% |  |
| CCCCCC1(C)CC(O)c2cc(O)ccc2O1 (centres undefined) |  | inactive |  | inactive |
| COC(=O)CCC1(C)CCc2cc(O)ccc2O1 (centres undefined) | inactive | Active | 33% |  |
| CC(=O)Oc1ccc2c(c1)C(=O)CC(C)(CCC(C)OC(C)=O)O2 (centres undefined) | inactive | Active | 40% |  |
| CC(O)CCC1(C)CC(=O)c2cc(O)ccc2O1 (centres undefined) | inactive | Active | 23% |  |
| CCOC(=O)CCC1(C)CC(=O)c2cc(O)ccc2O1 (centres undefined) | inactive | Active | 16% |  |
| CC(C)=CCCC1(C)CC(O)c2cc(O)ccc2O1 (centres undefined) |  | inactive |  | inactive |
